pIC50: −log10 of the molar value. Where two headings read alike, the source gives them in different places.
Legend:
α4β1 = target: T1, α4β1 (Homo sapiens, UniProt P05556+P13612); experiment: Ramos Cell Adhesion Assay (α4β1 Mediated Adhesion/VCAM-1); type: cell-based; details: Ramos cell adhesion to hVCAM-1; read-out: α4β1 IC50
T1 construct: Ramos Cell Adhesion Assay (α4β1 Mediated Adhesion/VCAM-1); endogenous in cells; host or cells: Ramos cells
In short: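 Plates coated overnight at 4° C with recombinant hVCAM-1 at 4.0 μg/mL, pH 9.0, then blocked in PBS/1% BSA. Calcein AM-labeled Ramos cells added with compounds and left to adhere 1 h at room temperature; after washing, cells lysed in 1 M Tris pH 8.0/1% SDS.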

[1] = tested on: alpha 4 beta 7-positive cells; experiment: Intraperitoneal Delayed Type Hypersensitivity (IP-DTH) Response; type: in vivo, mice; details: peritoneal cells 48 h after antigen challenge; for inhibition in vivo at 30 mg/kg: Mus musculus, 48 h, read-out: % Decrease in recruited α4β7 + cells
Description: Intraperitoneal Delayed Type Hypersensitivity (IP-DTH) Response. A Method for Analyzing Effects of Integrin Antagonists In Vivo
Integrin antagonists are meant to interfere with the binding or adhesion of immune cells, such as lymphocytes, monocytes and eosinophils that bear integrin receptors to counter-receptors that exist on endothelial cells in the vasculature. Among those integrin-bearing cells, cells that are positive for alpha 4 beta 7 integrin (found in the mesenteric system and in the gut), would comprise many of the cells recruited to a peritoneal antigen challenge. One can maximize the number of alpha 4 beta 7 integrin-positive cells recruited by inducing an intraperitoneal delayed type hypersensitivity response to antigen that will recruite antigen-responsive cells from the mesenteric lymph nodes. An inhibitor of alpha 4 beta 7 integrin should prevent the recruitment of these cells to the site of antigen challenge. Alpha 4 beta 7 integrin-positive cells are considered to be gut-homing, and are found in greater abundance in inflamed tissues of the GI tract and pancrea.
The antigenic challenge will induce a delayed type hypersensitivity response. In this model, animals were primed with antigen, then 7 days later were challenged intraperitoneally with the same antigen. During the ensuing 24-48 h, cells that were primed to recognize this antigen should be recruited to the challenge site. If the site is the peritoneal cavity, the recruited cells can be obtained by […] the cavity with a physiological buffer and collecting the lavage fluid.
The contribution of alpha 4 beta 7 integrin positive cells to the peritonal cavity cell population was ascertained by using flow cytometry to evaluate their relative percent in this population.
The mice were primed via intraperitoneal administration with 25 micrograms ovalbumin in a physiological buffer that may or may not contain alum as an adjuvant.
After 7 days, the mice were challenged with 25 micrograms ovalbumin via intraperitoneal administration.
Compounds were administered either orally (po), or subcutaneously (sc), either once daily or twice daily, for 2 days, starting on the day of antigen challenge.
Forty eight hours after antigen challenge, the elicited cells in the peritoneal cavity were harvested by lavaging the cavity in physiological saline or phosphate buffered saline, with calcium and magnesium salts.
The cells were washed into Staining Buffer consisting of phosphate buffered saline, 1% bovine serum albumin and 0.1% sodium azide, and resuspended to 2×10e7 cells/ml. A portion of 1×10e6 cells was deposited into a 96-well V-bottom plate for staining.
The sample of 1×10e6 cells was stained with fluorochrome-coupled antibody to alpha 4 beta 7 integrin or a primary antibody to alpha 4 beta 7 integrin followed by a secondary fluorochrome-coupled antibody. Each staining step was carried out at 4° C. for 30 to 45 min with gentle shaking, followed by 4 washes with Staining Buffer at 4° C. The cells were resuspended in 200 microliters of 1% paraformaldehyde in phosphate buffered saline. The cells were then transferred to test tubes and maintained at 4° C. until analyzed by flow cytometry to determine numbers of alpha4 beta7-postive cells.
A Becton-Dickenson FACSort (B-D instruments) was used for these studies.
Comparisons were made between numbers of alpha 4 beta 7-positive cells in samples taken from antigen-treated animals and numbers of alpha 4 beta 7-positive cells taken from antigen-treated animals administered experimental compounds.

T1 sequence (P13612 34-1032): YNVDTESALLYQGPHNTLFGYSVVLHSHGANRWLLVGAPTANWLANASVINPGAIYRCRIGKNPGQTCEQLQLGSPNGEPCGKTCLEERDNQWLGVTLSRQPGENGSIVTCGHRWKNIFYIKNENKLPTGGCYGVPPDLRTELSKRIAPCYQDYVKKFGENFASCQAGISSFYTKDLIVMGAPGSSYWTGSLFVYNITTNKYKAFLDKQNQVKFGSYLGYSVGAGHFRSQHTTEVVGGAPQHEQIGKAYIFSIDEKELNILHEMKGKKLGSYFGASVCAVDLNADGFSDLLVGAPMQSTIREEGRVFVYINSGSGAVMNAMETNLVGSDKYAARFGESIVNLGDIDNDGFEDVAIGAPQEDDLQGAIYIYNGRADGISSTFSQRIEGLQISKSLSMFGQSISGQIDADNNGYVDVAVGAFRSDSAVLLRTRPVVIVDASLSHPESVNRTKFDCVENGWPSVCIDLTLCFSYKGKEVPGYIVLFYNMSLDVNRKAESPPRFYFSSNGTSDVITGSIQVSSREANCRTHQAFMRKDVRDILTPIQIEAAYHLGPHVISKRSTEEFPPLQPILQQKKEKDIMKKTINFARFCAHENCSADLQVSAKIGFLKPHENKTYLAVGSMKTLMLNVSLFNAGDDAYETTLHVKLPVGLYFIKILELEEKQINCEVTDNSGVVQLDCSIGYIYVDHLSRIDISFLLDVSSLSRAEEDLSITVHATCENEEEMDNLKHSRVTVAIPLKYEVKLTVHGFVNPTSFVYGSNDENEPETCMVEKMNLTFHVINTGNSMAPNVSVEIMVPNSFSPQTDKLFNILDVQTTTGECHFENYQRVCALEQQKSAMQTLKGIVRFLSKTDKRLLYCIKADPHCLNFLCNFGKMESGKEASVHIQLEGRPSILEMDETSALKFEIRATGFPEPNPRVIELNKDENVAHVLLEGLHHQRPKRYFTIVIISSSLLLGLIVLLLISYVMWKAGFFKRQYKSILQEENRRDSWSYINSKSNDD
T1 sequence (P05556 21-798): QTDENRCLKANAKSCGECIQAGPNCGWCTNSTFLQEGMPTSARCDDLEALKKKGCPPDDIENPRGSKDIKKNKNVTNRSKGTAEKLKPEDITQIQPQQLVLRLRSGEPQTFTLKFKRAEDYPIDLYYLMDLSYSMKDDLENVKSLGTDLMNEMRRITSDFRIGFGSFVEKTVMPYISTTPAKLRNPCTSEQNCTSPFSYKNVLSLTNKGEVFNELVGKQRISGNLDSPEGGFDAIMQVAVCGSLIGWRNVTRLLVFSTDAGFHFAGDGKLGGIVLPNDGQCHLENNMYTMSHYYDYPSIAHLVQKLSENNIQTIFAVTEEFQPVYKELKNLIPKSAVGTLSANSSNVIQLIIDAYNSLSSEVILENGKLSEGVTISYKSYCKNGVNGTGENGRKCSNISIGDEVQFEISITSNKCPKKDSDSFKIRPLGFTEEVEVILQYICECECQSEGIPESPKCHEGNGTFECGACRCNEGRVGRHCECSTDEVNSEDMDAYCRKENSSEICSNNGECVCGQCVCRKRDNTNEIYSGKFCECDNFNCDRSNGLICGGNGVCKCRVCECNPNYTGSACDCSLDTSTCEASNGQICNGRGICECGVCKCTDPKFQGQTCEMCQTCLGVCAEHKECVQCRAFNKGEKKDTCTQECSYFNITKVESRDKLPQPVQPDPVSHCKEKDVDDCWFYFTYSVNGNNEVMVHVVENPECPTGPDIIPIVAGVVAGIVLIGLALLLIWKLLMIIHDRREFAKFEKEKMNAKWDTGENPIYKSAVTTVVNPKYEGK

pIC50 (α4β1)	Structure (SMILES)	inhibition in vivo at 30 mg/kg ([1]; po, 30 mg/kg po bid × 2)	inhibition in vivo at 30 mg/kg ([1]; sc, 30 mg/kg sc bid × 2)	% Decrease in recruited α4β7 + cells ([1]; 30 mg/kg sc bid × 2)	% Decrease in recruited α4β7 + cells ([1]; 30 mg/kg po bid × 2)
< 5.30	Cn1ncc(N)c(-c2ccc(C[C@H](NC(=O)c3c(Cl)cccc3Cl)C(=O)OCCO)cc2)c1=O [Cpd 232]	47.8%			
6.47	O=C(N[C@@H](Cc1ccc(-c2c(OCC3CC3)cnn(CCO)c2=O)cc1)C(=O)O)c1c(Cl)cccc1Cl [Cpd 35]		49.8%		
< 6.00	CNc1cnn(CC(C)=O)c(=O)c1-c1ccc(C[C@H](NC(=O)c2c(Cl)cccc2Cl)C(=O)O)cc1 [Cpd 18]			52.8%	
6.66	O=C(N[C@@H](Cc1ccc(-c2c(N3CCOCC3)cnn(CCO)c2=O)cc1)C(=O)O)c1c(Cl)cccc1Cl [Cpd 61]		37.4%		
6.44	COc1cnn(CCN2CCOCC2)c(=O)c1-c1ccc(C[C@H](NC(=O)c2c(Cl)cccc2Cl)C(=O)O)cc1 [Cpd 10]		56.3%		
6.90	COc1cnn(CCO)c(=O)c1-c1ccc(C[C@H](NC(=O)c2c(Cl)cccc2Cl)C(=O)O)cc1 [Cpd 15, (S)-2-(2,6-Dichloro-benzoylamino)-3{4-[2-(2-hydroxy-ethyl)-5-methoxy-3-oxo-2,3-dihydro-pyridazin-4-yl]-phenyl}-propionic acid]		10.4%		
7.40	COc1cnn(C)c(=O)c1-c1ccc(C[C@H](NC(=O)[C@@H]2C3CCC(CC3)N2C(=O)CCc2ccccc2)C(=O)O)cc1 [Cpd 89, 3-[4-(5-Methoxy-2-methyl-3-oxo-2,3-dihydro-pyridazin-4-yl)-phenyl]-2(S)-{[2-(3-phenyl-propionyl)-2-aza-bicyclo[2.2.2]octane-3(S)-carbonyl]-amino}-propionic acid]				
6.43	Cn1ncc(N)c(-c2ccc(C[C@H](NC(=O)c3c(Cl)cccc3Cl)C(=O)O)cc2)c1=O [Cpd 46]		56.6%		
< 5.30	COc1cnn(CCO)c(=O)c1-c1ccc(C[C@H](NC(=O)c2c(Cl)cccc2Cl)C(=O)OCCO)cc1 [Cpd 199]				16.04%
6.55	O=C(N[C@@H](Cc1ccc(-c2c(OCc3cccnc3)cnn(CCO)c2=O)cc1)C(=O)O)c1c(Cl)cccc1Cl [Cpd 30]		37.4%		
< 5.30	COC(=O)[C@H](Cc1ccc(-c2c(OC)cnn(C)c2=O)cc1)NC(=O)c1c(Cl)cccc1Cl [Cpd 151]				
6.51	COc1cnn(CC(N)=O)c(=O)c1-c1ccc(C[C@H](NC(=O)c2c(Cl)cccc2Cl)C(=O)O)cc1 [Cpd 5]		53.4%		
	COc1cnn(CCO)c(=O)c1-c1ccc(C[C@H](NC(=O)OC(C)(C)C)C(=O)O)cc1 [Cpd 120]	25.4%			
< 5.30	COc1cnn(C)c(=O)c1-c1ccc(C[C@H](NC(=O)c2c(Cl)cccc2Cl)C(=O)OCC(C)(C)C)cc1 [Cpd 207]	25.6%			
6.07	COc1cnn(CC(=O)O)c(=O)c1-c1ccc(C[C@H](NC(=O)c2c(Cl)cccc2Cl)C(=O)O)cc1 [Cpd 11]		70.5%		

From US20050192279A1, “Pyridazinones as antagonists of alpha4 integrins” (priority 2004, published 2005)
